Here are results for seven compounds from patent US9232796B2, “Herbicidal compositions comprising 4-amino-3-chloro-5-fluoro-6-(4-chloro-2-fluoro-3-methoxyphenyl) pyridine-2-carboxylic acid or a derivative thereof and acetyl-CoA carboxylase (ACCase) inhibitors” (DOW AGROSCIENCES LLC, priority 2012, dated 2016).

For assay [1], the system named is ECHCG. Kind of assay: Example VI in-water applied ternary mixtures, greenhouse, transplanted paddy rice weeds. It is filed as in vivo, Echinochloa crus-galli (L.) Beauv. Here is the method: (§1) Weed seeds or nutlets of the desired test plant species were planted in puddled soil (mud) prepared by mixing a shredded, non-sterilized mineral soil (50.5 percent silt, 25.5 percent clay, and 24 percent sand, with a pH of about 7.6 and an organic matter content of about 2.9 percent) and water at a 1:1 volumetric ratio. The prepared mud was dispensed in 365 mL aliquots into 16-ounce (oz.) non-perforated plastic pots with a surface area of 86.59 square centimeters (cm^2) leaving a headspace of 3 centimeters (cm) in each pot. Mud was allowed to dry overnight prior to planting or transplanting. Rice seeds were planted in Sun Gro MetroMix® 306 planting mixture, which typically has a pH of 6.0 to 6.8 and an organic matter content of about 30 percent, in plastic plug trays. Seedlings at the second or third leaf stage of growth were transplanted into 860 mL of mud contained in 32-oz. non-perforated plastic pots with a surface area of 86.59 cm^2 4 days prior to herbicide application. The paddy was created by filling the headspace of the pots with 2.5 to 3 cm of water. When required to ensure good germination and healthy plants, a fungicide treatment and/or other chemical or physical treatment was applied. The plants were grown for 4-22 days in a greenhouse with an approximate 14 hr. photoperiod which was maintained at about 29° C. during the day and 26° C. during the night. Nutrients were added as Osmocote® (19:6:12, N:P:K+minor nutrients) at 2 g per 16-oz. pot and 4 g per 32-oz. pot. Water was added on a regular basis to maintain the paddy flood, and supplemental lighting was provided with overhead metal halide 1000-Watt lamps as necessary. The plants were employed for testing when they reached the first through fourth true leaf stage.
(§2) Treatments consisted of the benzyl ester of 4-amino-3-chloro-5-fluoro-6-(4-chloro-2-fluoro-3-methoxy-phenyl)pyridine-2-carboxylic acid (Compound A), formulated as an SC (suspension concentrate), an ACCase inhibitor herbicide, and a third herbicidal component, each applied alone and in ternary combination. Forms of compound A were applied on an acid equivalent basis.
(§3) The ACCase inhibitor component was applied on an active ingredient basis and included cyhalofop-R-butyl formulated as Clincher® G and metamifop formulated as Metamifop EC. Other herbicidal components were applied on an active ingredient or acid equivalent basis depending on the compound and included penoxsulam formulated as Grasp® SC, bentazon sodium formulated as Basagran®, triclopyr […] (TEA) salt formulated as Grandstand® R, benzobicyclon formulated as Benzobicyclon, benfuresate formulated as Full Slot® WG, pyraclonil formulated as Pyraclon® Flowable, mefenacet (technical grade material), and pretilachlor (technical grade material).
(§4) Treatment requirements for each compound or herbicidal component were calculated based upon the rates being tested, the concentration of active ingredient or acid equivalent in the formulation, an application volume of 1 mL per component per pot, and an application area of 86.59 cm^2 per pot.
(§5) For formulated compounds, a measured amount was placed in an individual 100 or 200 mL glass vial and was dissolved in a volume of 1.25% (v/v) Agri-Dex® crop oil concentrate to obtain application solutions.
(§6) For technical grade compounds, a weighed amount was placed in an individual 100 to 200 mL glass vial and was dissolved in a volume of acetone to obtain concentrated stock solutions.
(§7) Applications were made by injecting with a pipetter appropriate amounts of the application solutions, into the aqueous layer of the paddy. Control plants were treated in the same manner with the solvent blank. Applications were made so that all treated plant material received the same concentrations of acetone and crop oil concentrate.
(§8) The treated plants and control plants were placed in a greenhouse as described above and water was added as needed to maintain a paddy flood. […]

A further assay concerns FIMMI. The assay is described as above. It is filed as in vivo, Fimbristylis miliacea (L.) Vahl. Here is the method: as §1, §2, §3, §4, §5, §6, §7, §8
The test system of a further assay is IPOHE. Nature of the assay: Example V (second) postemergence foliar-applied ternary mixtures, greenhouse, direct seeded rice weeds. Type of assay: in vivo, Ipomoea hederacea Jacq. Here is the method: The treated plants and control plants were placed in a greenhouse as described above and watered by sub-irrigation to prevent wash-off of the test compounds. After approximately 3 weeks, the condition of the test plants as compared with that of the untreated plants was determined visually and scored on a scale of 0 to 100 percent where 0 corresponds to no injury or growth inhibition and 100 corresponds to complete kill.
Colby's equation was used to determine the herbicidal effects expected from the mixtures (Colby, S. R. 1967. Calculation of the synergistic and antagonistic response of herbicide combinations. Weeds 15:20-22.).
The following equation was used to calculate the expected activity of mixtures containing three active ingredients, A, B, and C: Expected=A+B+C−((A×B+A×C+B×C)/100)+(A×B×C/10000)

Assay [2] relates to ECHCG. The assay is described as above. The conditions noted are these: 200 gai/ha. Type of assay: in vivo, Echinochloa crus-galli (L.) Beauv. From the text:
Seeds or nutlets of the desired test plant species were planted in a soil matrix prepared by mixing a sandy loam or loam soil (e.g., 32 percent silt, 23 percent clay, and 45 percent sand, with a pH of about 6.5 and an organic matter content of about 1.9 percent) and calcareous grit in an 80 to 20 ratio. The soil matrix was contained in plastic pots with a volume of 1 quart and a surface area of 83.6 square centimeters (cm^2). When required to ensure good germination and healthy plants, a fungicide treatment and/or other chemical or physical treatment was applied. The plants were grown for 8-22 days in a greenhouse with an approximate 14 hr. photoperiod which was maintained at about 29° C. during the day and 26° C. during the night. Nutrients (Peters Excel® 15-5-15 5-Ca 2-Mg and iron chelate) were applied in the irrigation solution as needed and water was added on a regular basis. Supplemental lighting was provided with overhead metal halide 1000-Watt lamps as necessary. The plants were employed for testing when they reached the first through fourth true leaf stage.
Treatments consisted of the benzyl ester of 4-amino-3-chloro-5-fluoro-6-(4-chloro-2-fluoro-3-methoxy-phenyl)pyridine-2-carboxylic acid (Compound A), formulated as an SC (suspension concentrate), an ACCase inhibitor, and a third herbicidal component, each applied alone and in ternary combination. Forms of compound A were applied on an acid equivalent basis.
The ACCase inhibitor component was applied on an active ingredient basis and included cyhalofop-R-butyl formulated as Clincher® SF, fenoxaprop-p-ethyl formulated as RiceStar® HT, and profoxydim formulated as Aura® 20EC. Other herbicidal components were applied on an active ingredient or acid equivalent basis depending on the compound and included penoxsulam formulated as Grasp® SC, bentazon sodium formulated as Basagran®, triclopyr […] (TEA) salt formulated as Grandstand® R, bispyribac sodium formulated as Regiment® 80WP, imazamox ammonium formulated as Beyond®, benzobicyclon, quinclorac formulated as Facet® 75DF, glyphosate dimethylammonium (DMA) salt formulated as Durango® DMA, glufosinate ammonium formulated as Ignite® 280, fentrazamide formulated as an emulsifiable concentrate (EC), propyrisulfuron formulated as Zeta One®, and indanofan (technical grade material).
(§9) Treatment requirements were calculated based upon the rates being tested, the concentration of active ingredient or acid equivalent in the formulation, and a 12 mL application volume at a rate of 187 L/ha.
For treatments comprised of formulated compounds, measured amounts of compounds were placed individually in 25 mL glass vials and diluted in a volume of 1.25% (v/v) Agri-Dex® crop oil concentrate to obtain 12× stock solutions. […] Application solutions were prepared by adding an appropriate amount of each stock solution (e.g., 1 mL) and diluted to the appropriate final concentrations with the addition of 9 mL of an aqueous mixture of 1.25% (v/v) crop oil concentrate so that the final spray solutions contained 1.25% (v/v) crop oil concentrate.
As required, additional water and/or 97:3 v/v acetone/DMSO was added to individual application solutions so that the final acetone and DMSO concentrations of the application solutions being compared were 8.1% and 0.25%, respectively.
All stock solutions and applications solutions were visually inspected for compound compatibility prior to application. Spray solutions were applied to the plant material with an overhead Mandel track sprayer equipped with a 8002E nozzles calibrated to deliver 187 L/ha over an application area of 0.503 m^2 at a spray height of 18 inches (46 cm) above average plant canopy height. Control plants were sprayed in the same manner with the solvent blank.
The treated plants and control plants were placed in a greenhouse as described above and watered by sub-irrigation to prevent wash-off of the test compounds. […]

The next assay deals with CYPIR. Nature of the assay: Example I postemergence foliar-applied, greenhouse, direct seeded rice weeds. It is filed as in vivo, Cyperus iria L.
Excerpt: Seeds or nutlets of the desired test plant species were planted in a soil matrix prepared by mixing a loam or sandy loam soil (e.g., 28.6 percent silt, 18.8 percent clay, and 52.6 percent sand, with a pH of about 5.8 and an organic matter content of about 1.8 percent) and calcareous grit in an 80 to 20 ratio. The soil matrix was contained in plastic pots with a volume of 1 quart and a surface area of 83.6 square centimeters (cm^2). When required to ensure good germination and healthy plants, a fungicide treatment and/or other chemical or physical treatment was applied. The plants were grown for 8-22 days in a greenhouse with an approximate 14 hr. photoperiod which was maintained at about 29° C. during the day and 26° C. during the night. Nutrients (Peters Excel® 15-5-15 5-Ca 2-Mg and iron chelate) were applied in the irrigation solution as needed and water was added on a regular basis. Supplemental lighting was provided with overhead metal halide 1000-Watt lamps as necessary. The plants were employed for testing when they reached the first through fourth true leaf stage.
Treatments consisted of the acid or esters of 4-amino-3-chloro-5-fluoro-6-(4-chloro-2-fluoro-3-methoxy-phenyl)pyridine-2-carboxylic acid (Compound A), each formulated as an SC (suspension concentrate), and various herbicidal components alone and in combination.
Other herbicidal components were applied on an acid equivalent (ae) or active ingredient (ai) basis and included acetyl coA carboxylase (ACCase)-inhibiting herbicides (cyclohexanedione and aryloxyphenoxypropionate chemical classes) cyhalofop-butyl formulated as Clincher® SF (285 gr ai/L EC), diclofop-methyl formulated as Hoelon® 3EC, fenoxaprop-p-ethyl+isoxadifen-ethyl formulated as RiceStar® HT (0.58 lb./gal EC), fenoxaprop-p-ethyl+mefenpyr diethyl formulated as Puma® IEC, metamifop formulated as Metamifop EC, haloxyfop-methyl formulated as Gallant Super®, fluazifop-p-butyl formulated as Fusilade® DX, quizalofop-p-ethyl formulated as Assure® II, profoxydim formulated as Aura® 20EC, clethodim applied as Intensity®, sethoxydim formulated as Poast®, and tralkoxydim formulated as Achieve®.
as §9
For treatments comprised of formulated compounds, measured amounts of compounds were placed individually in 25 mL glass vials and diluted in a volume of 1.25% (v/v) Agri-Dex® crop oil concentrated to obtain 12× stock solutions. […] Application solutions were prepared by adding an appropriate amount of each stock solution (e.g., 1 mL) and diluted to the appropriate final concentrations with the addition of 10 mL of an aqueous mixture of 1.25% (v/v) crop oil concentrate so that the final spray solutions contained 1.25+/−0.05% (v/v) crop oil concentrate.
All stock solutions and applications solutions were visually inspected for compound compatibility prior to application. Spray solutions were applied to the plant material with an overhead Mandel track sprayer equipped with a 8002E nozzles calibrated to deliver 187 L/ha over an application area of 0.503 m^2 at a spray height of 18 to 20 inches (46 to 50 cm) above average plant canopy height. Control plants were sprayed in the same manner with the solvent blank.
The treated plants and control plants were placed in a greenhouse as described above and watered by sub-irrigation to prevent wash-off of the test compounds. After approximately 3 weeks, the condition of the test plants as compared with that of the untreated plants was determined visually and scored on a scale of 0 to 100 percent where 0 corresponds to no injury or growth inhibition and 100 corresponds to complete kill. […]

The subject of another assay is CYPRO. Nature of the assay: Example VI in-water applied ternary mixtures, greenhouse, transplanted paddy rice weeds. The conditions noted are these: 21 DAA. It is filed as in vivo, Cyperus rotundus L. The protocol:
as §1, §2, §3, §4, §5, §6, §7, §8

`CCS(=O)(=O)Oc1ccc2c(c1)C(C)(C)CO2` [Benfuresate]: the “Visual Weed Control (%) - 21 DAA ECHCG Obs” value in the assay with ECHCG [1] (150 gai/ha) was determined as 0%.

With `CC(C)N1C(=O)c2ccccc2NS1(=O)=O` [Bentazon Sodium], the “Visual Weed Control (%) - 21 DAA ECHCG Obs” value in the assay with ECHCG [1] (210 gae/ha, first set) turned out to be 0%; with ECHCG [1] (420 gae/ha, second set), 15%. Besides, the “Visual Weed Control (%) - 21 DAA FIMMI Obs” value was 17% with FIMMI (210 gae/ha, first set) and 30% in the assay with FIMMI (420 gae/ha, second set).

Take `CC(C)N1C(=O)c2ccccc2NS1(=O)=O` [Bentazon sodium]: the “Visual Weed Control (%) - 21 DAA IPOHE Obs” value in the assay on IPOHE (420 gae/ha, lower sub-table) turned out to be 75%; in the assay with IPOHE (420 gae/ha, upper sub-table), 53%.

As for `CS(=O)(=O)c1ccc(C(=O)C2=C(Sc3ccccc3)C3CCC(C3)C2=O)c(Cl)c1` (stereo not shown) [Benzobicyclon], the “Visual Weed Control (%) - 21 DAA ECHCG Obs” value in the assay with ECHCG [2] came to 0%. In addition, the “Visual Weed Control (%) - 21 DAA IPOHE Obs” value in the assay on IPOHE (200 gai/ha) is given as 55%.

On to `COC(=O)C(C)Oc1ccc(Oc2ccc(Cl)cc2Cl)cc1` (stereo not shown) [Diclofop-methyl, methyl 2-[4-(2,4-dichlorophenoxy)phenoxy]propanoate], for which the “Visual Weed Control (%) - 22 DAA CYPIR Obs” value in the assay with CYPIR (280 gai/ha), in the assay with CYPIR (560 gai/ha) and with CYPIR (1120 gai/ha) was 0% each time.

Regarding `CN(C(=O)COc1nc2ccccc2s1)c1ccccc1` [Mefenacet], the “Visual Weed Control (%) - 21 DAA CYPRO Obs” value in the assay with CYPRO (Table 69, 75 gai/ha) worked out at 0%; in the assay on CYPRO (Table 69, 150 gai/ha), 0%.

For `CCCOCCN(C(=O)CCl)c1c(CC)cccc1CC` [Pretilachlor], the “Visual Weed Control (%) - 21 DAA CYPRO Obs” value in the assay with CYPRO (Table 70, 25 gai/ha) turned out to be 0%; in the assay with CYPRO (Table 70, 50 gai/ha), 0%.
